In experiment [1] the test system is HeLa (human cervical epithelioid carcinoma). As to the kind of experiment: MTT assay, HeLa. It is filed as cell-based. The following applies: IC50 HDF / IC50 HeLa. Here is the method: (§1) All the cell lines and mediums were obtained from the American Type Culture Collection (ATCC) supplied by LGC-Standards (Lomianki, Poland). Human cancer cell lines were cultured as follows: HeLa (human cervix carcinoma) and KB (human oral squamous carcinoma) lines were cultured in DMEM (Dulbecco’s Modified Eagle’s Medium); MCF-7 (human breast carcinoma) and A-549 (human lung carcinoma) were cultured in RPMI 1640 medium; PC-3 (human prostate carcinoma) was cultured in F-12K medium; SKOV-3 (human ovarian cystadenocarcinoma) was cultured in McCoy’s modified medium; HDF (human normal dermal fibroblasts) was cultured in Fibroblast Basal Medium. Each medium was supplemented with 10% fetal bovine serum, 1% L- glutamine and 1% penicillin/streptomycin solution. The cell lines were kept in an incubator at 37 °C.
(§2) All the tested cell lines (HeLa, KB, MCF-7, A-549, PC-3, SKOV-3 and HDF) were subjected to MTT assay. In short, this assay is based on the reaction between mitochondria enzymes (dehydrogenases) of tested cell lines and 3-(4,5-dimethylthiazol-2-yl)-2,5-diphenyltetrazolium bromide (MTT). The final product of this reaction gives violet formazan crystals. The number of live cells is proportional to the amount of formazan and is represented by the violet dye reagent. The details of the experiments are given in [19].
(In general: Formazan colour is commonly taken as a measure of viable cells.)

Experiment [2] has as its system KB (human oral squamous carcinoma). Kind of experiment: MTT assay, KB. It is filed as cell-based. The following applies: IC50 HDF / IC50 KB. Here is the method: as §1, §2
Experiment [3] deals with MCF-7 (human breast carcinoma). As to the kind of experiment: MTT assay, MCF-7. It is filed as cell-based. The note with it: IC50 HDF / IC50 MCF-7. Here is the method:
as §1, §2

Experiment [4] relates to A-549 (human lung carcinoma). As to the kind of experiment: MTT assay, A-549. The following applies: IC50 HDF / IC50 A-549. It is filed as cell-based. Here is the method: as §1, §2
The subject of experiment [5] is PC-3 (human prostate carcinoma). Kind of experiment: MTT assay, PC-3. It is filed as cell-based. Here is the method:
as §1, §2

Experiment [6] relates to SKOV-3 (human ovarian carcinoma). Kind of experiment: MTT assay, SKOV-3. It is filed as cell-based. Here is the method: as §1, §2
In experiment [7] the test system is HDF (human dermal fibroblasts). As to the kind of experiment: MTT assay, normal HDF. The following applies: Homo sapiens, Fibroblast, read-out: IC50 (±SD), HDF. It is filed as cell-based. Here is the method:
as §1, §2

Another experiment in a line: CUPRAC antioxidant assay. The following applies: calculated from Trolox standard curve. The essentials: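 The CUPRAC reagent was made from 7.5 mM neocuproine, 10 mM CuCl2 and ammonium acetate buffer pH 7.0; the DPPH reagent was a 0.2 mM solution. Both were read spectrophotometrically in plates. Activity is given as % inhibition and as Trolox equivalents from standard curves.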

Experiment [8] has as its system HeLa (human cervical epithelioid carcinoma). The following applies: MTT assay, data published earlier, read-out: IC50 (±SD), HeLa; cited from earlier work.
The subject of experiment [9] is KB (human oral squamous carcinoma). The following applies: MTT assay, data published earlier; cited from earlier work.
The test system of experiment [10] is MCF-7 (human breast carcinoma). The note with it: MTT assay, data published earlier, read-out: IC50 (±SD), MCF-7; cited from earlier work.
The test system of experiment [11] is A-549 (human lung carcinoma). The note with it: MTT assay, data published earlier, read-out: IC50 (±SD), A-549; cited from earlier work.
Experiment [12] relates to MCF-7 (human breast carcinoma). The following applies: ref 55; read-out: anticancer IC50 (MCF-7); cited from earlier work.
The test system of experiment [13] is HeLa (human cervical epithelioid carcinoma). The following applies: ref 56; read-out: anticancer IC50 (HeLa); cited from earlier work.
In experiment [14] the test system is A-549 (human lung carcinoma). The note with it: ref 56; read-out: anticancer IC50 (A-549); cited from earlier work.
In experiment [15] the test system is MDA MB-231 (human epithelial adenocarcinoma). Details: method as in doi:10.1002/slct.201803101. The note with it: ref 56; read-out: anticancer IC50 (MDA MB-231); cited from earlier work.

Several values for one entry are separate records, joined by “and”; a condition that tells them apart may be missing. Equal values may be shown once. Read-outs that look alike come from different tables or passages of the source.

Regarding `C=C(C)[C@@H]1CC[C@]2(C)CC[C@]3(C)[C@H](CC[C@@H]4[C@@]5(C)CC[C@H](O)C(C)(C)[C@@H]5CC[C@]43C)[C@@H]12` [6a, lupeol], the “Selectivity index (SI), HeLa” value in experiment [1] was determined as 0.77. For the same compound, the “Selectivity index (SI), KB” value in [2] was found to be 0.57. Also, the “Selectivity index (SI), MCF-7” value in experiment [3] is on record as 0.56. Moreover, the “Selectivity index (SI), A-549” value in experiment [4] turned out to be 0.63. For the same compound, the 50% inhibitory concentration (IC50) (commonly the concentration at which inhibition is half-maximal) was 14.5 µM in experiment [5] (Homo sapiens, MTT assay, PC-3, read-out: IC50 (±SD), PC-3); 14.6 µM in [6] (Homo sapiens, SK-OV-3, MTT assay, SKOV-3, read-out: IC50 (±SD), SKOV-3); 29 µM in [7]; 37.7 µM in experiment [8]; 51.2 µM in experiment [9]; 51.8 µM in [10]. The IC50 was 45.7 µM in [11]; 80 µM in experiment [12]; 31.9 µM in experiment [13]; 64.8 µM in [14]; 46.1 µM in [15]. The “Selectivity index (SI), PC-3” value in experiment [5] (IC50 HDF / IC50 PC-3) was determined as 2.00. In experiment [6] (IC50 HDF / IC50 SKOV-3), the “Selectivity index (SI), SKOV-3” value is recorded as 1.99. Also, the “Trolox Equivalent, CUPRAC Assay” value in “CUPRAC antioxidant assay” was 0.136 mg/mL and 0.136 ± 0.00593 mg/mL.

The record behind these values is publication PMC12196235, “Enhancing the Pharmacological Properties of Triterpenes Through Acetylation: An Anticancer and Antioxidant Perspective” (Molecules, 2025).
